Experimental data reported in patent US9695155B2, “Herbicidal substituted pyrimidinyloxy benzene compounds” (E. I. DU PONT DE NEMOURS AND COMPANY, priority 2013, dated 2017).

How the values were obtained:
Experiment in all cases: Test E preemergence
[1] = tested on: corn; format: in vivo, Zea mays; conditions: for Corn plant response rating: scale 0 to 100 (0 no effect, 100 complete control)
Description: (§1) Seeds of plant species selected from corn (Zea mays), soybean (Glycine max), velvetleaf (Abutilon theophrasti), lambsquarters (Chenopodium album), wild poinsettia (Euphorbia heterophylla), palmer pigweed (Amaranthus palmeri), waterhemp (common waterhemp, Amaranthus rudis), surinam grass (Brachiaria decumbens), large (Lg) crabgrass (Digitaria sanguinalis), Brazilian crabgrass (Digitaria horizontalis), fall panicum (Panicum dichotomiflorum), giant foxtail (Setaria faberii), green foxtail (Setaria viridis), goosegrass (Eleusine indica), johnsongrass (Sorghum halepense), ragweed (common ragweed, Ambrosia elatior), barnyardgrass (Echinochloa crus-galli), sandbur (southern sandbur, Cenchrus echinatus), arrowleaf sida (Sida rhombifolia), Italian ryegrass (Lolium multiflorum), dayflower (Virginia (VA) dayflower, Commelina virginica), field bindweed (Convolvulus arvensis), morningglory (Ipomoea coccinea), nightshade (eastern black nightshade, Solanum ptycanthum), kochia (Kochia scoparia), yellow nutsedge (Cyperus esculentus), cocklebur (common cocklebur, Xanthium strumarium), smartweed (ladysthumb smartweed, and hairy beggarticks (Bidens pilosa), were planted into a silt loam soil and treated preemergence with test chemicals formulated in a non-phytotoxic solvent mixture which included a surfactant.
(§2) At the same time, plants from these crop and weed species and also horseweed (Canada horseweed, Conyza canadensis), waterhemp_RES1, (ALS & Triazine resistant common waterhemp, Amaranthus rudis), and waterhemp_RES2, (ALS & HPPD resistant common waterhemp, Amaranthus rudis) were planted in pots containing Redi-Earth® planting medium (Scotts Company, 14111 Scottslawn Road, Marysville, Ohio 43041) comprising spaghnum peat moss, vermiculite, wetting agent and starter nutrients were treated with postemergence applications of test chemicals formulated in the same manner. Plants ranged in height from 2 to 18 cm for postemergence treatments (1- to 4-leaf stage). Treated plants and controls were maintained in a greenhouse for 14 to 21 days, after which time all species were compared to controls and visually evaluated. Plant response ratings, summarized in Table E, are based on a scale of 0 to 100 where 0 is no effect and 100 is complete control. A dash (-) response means no test result.

[2] = tested on: soybean; format: in vivo, Glycine max; conditions: for Soybean plant response rating: scale 0 to 100 (0 no effect, 100 complete control)
Description: as §1, §2

[3] = tested on: velvetleaf; format: in vivo, Abutilon theophrasti; conditions: for Velvetleaf plant response rating: scale 0 to 100 (0 no effect, 100 complete control)
Description: as §1, §2

[4] = tested on: lambsquarters; format: in vivo, Chenopodium album; conditions: for Lambsquarters plant response rating: scale 0 to 100 (0 no effect, 100 complete control)
Description: as §1, §2

[5] = tested on: waterhemp; format: in vivo, Amaranthus rudis; conditions: for Waterhemp plant response rating: scale 0 to 100 (0 no effect, 100 complete control)
Description: as §1, §2

[6] = tested on: surinam grass; format: in vivo, Brachiaria decumbens; conditions: for Surinam Grass plant response rating: scale 0 to 100 (0 no effect, 100 complete control)
Description: as §1, §2

[7] = tested on: giant foxtail; format: in vivo, Setaria faberii; conditions: for Foxtail, Giant plant response rating: scale 0 to 100 (0 no effect, 100 complete control)
Description: as §1, §2

[8] = tested on: goosegrass; format: in vivo, Eleusine indica; conditions: for Goosegrass plant response rating: scale 0 to 100 (0 no effect, 100 complete control)
Description: as §1, §2

[9] = tested on: ragweed; format: in vivo, Ambrosia elatior; conditions: for Ragweed plant response rating: scale 0 to 100 (0 no effect, 100 complete control)
Description: as §1, §2

[10] = tested on: arrowleaf sida; format: in vivo, Sida rhombifolia; conditions: for Arrowleaf Sida plant response rating: scale 0 to 100 (0 no effect, 100 complete control)
Description: as §1, §2

[11] = tested on: field bindweed; format: in vivo, Convolvulus arvensis; conditions: for Field Bindweed plant response rating: scale 0 to 100 (0 no effect, 100 complete control)
Description: as §1, §2

[12] = tested on: kochia; format: in vivo, Kochia scoparia; conditions: for Kochia plant response rating: scale 0 to 100 (0 no effect, 100 complete control)
Description: as §1, §2

[13] = 8 g ai/ha, scale 0 to 100, 0 is no effect, 100 is complete control
[14] = 125 g ai/ha, scale 0 to 100, 0 no effect, 100 complete control
[15] = 8 g ai/ha, preemergence, scale 0 to 100, 0 is no effect, 100 is complete control
[16] = preemergence, 125 g ai/ha, scale 0 to 100, 0 no effect, 100 complete control

FC(F)c1cccc(Oc2ncc(Cl)cn2)c1-n1cc(C(F)(F)F)cn1 [Compound 170]
Plant response rating, Corn [1, 13]: 0 | Corn plant response rating ([1]; 16 g ai/ha): 0 | Corn plant response rating ([1]; 31 g ai/ha): 20 | Corn plant response rating ([1]; 62 g ai/ha): 10 | Plant response rating, Corn [1, 14]: 30 | Plant response rating, Soybean [2, 13]: 0 | Soybean plant response rating ([2]; 31 g ai/ha): 0 | Soybean plant response rating ([2]; 62 g ai/ha): 30 | Plant response rating, Soybean [2, 14]: 60 | Plant response rating, Velvetleaf [3, 13]: 0 | Velvetleaf plant response rating ([3]; 31 g ai/ha): 60 | Velvetleaf plant response rating ([3]; 62 g ai/ha): 65 | Plant response rating, Velvetleaf [3, 14]: 100 | Plant response rating, Lambsquarters [4, 13]: 0 | Lambsquarters plant response rating ([4]; 31 g ai/ha): 98 | Lambsquarters plant response rating ([4]; 62 g ai/ha): 100 | Plant response rating, Lambsquarters [4, 14]: 100 | Plant response rating, Waterhemp [5, 13]: 0 | Waterhemp plant response rating ([5]; 31 g ai/ha): 80 | Waterhemp plant response rating ([5]; 62 g ai/ha): 90 | Plant response rating, Waterhemp [5, 14]: 80 | Plant response rating, Surinam Grass [6, 13]: 0 | Surinam Grass plant response rating ([6]; 31 g ai/ha): 0 | Surinam Grass plant response rating ([6]; 62 g ai/ha): 15 | Plant response rating, Surinam Grass [6, 14]: 25 | Plant response rating, Foxtail, Giant [7, 13]: 0 | Foxtail, Giant plant response rating ([7]; 16 g ai/ha): 0 | Foxtail, Giant plant response rating ([7]; 31 g ai/ha): 25 | Foxtail, Giant plant response rating ([7]; 62 g ai/ha): 100 | Plant response rating, Foxtail, Giant [7, 14]: 100 | Plant response rating, Goosegrass [8, 13]: 0 | Goosegrass plant response rating ([8]; 31 g ai/ha): 40 | Goosegrass plant response rating ([8]; 62 g ai/ha): 75 | Plant response rating, Goosegrass [8, 14]: 98 | Plant response rating, Ragweed [9, 13]: 0 | Ragweed plant response rating ([9]; 31 g ai/ha): 0 | Ragweed plant response rating ([9]; 62 g ai/ha): 5 | Plant response rating, Ragweed [9, 14]: 35 | Plant response rating, Arrowleaf Sida [10, 15]: 0 | Arrowleaf Sida plant response rating ([10]; 16 g ai/ha, preemergence): 0 | Arrowleaf Sida plant response rating ([10]; 31 g ai/ha, preemergence): 10 | Arrowleaf Sida plant response rating ([10]; 62 g ai/ha, preemergence): 90 | Plant response rating, Arrowleaf Sida [10, 16]: 100 | Plant response rating, Field Bindweed [11, 13]: 0 | Field Bindweed plant response rating ([11]; 16 g ai/ha): 0 | Field Bindweed plant response rating ([11]; 31 g ai/ha): 0 | Field Bindweed plant response rating ([11]; 62 g ai/ha): 20 | Plant response rating, Field Bindweed [11, 14]: 30 | Plant response rating, Kochia [12, 13]: 0 | Kochia plant response rating ([12]; 31 g ai/ha): 30 | Kochia plant response rating ([12]; 62 g ai/ha): 90 | Plant response rating, Kochia [12, 14]: 98

Cc1cnc(Oc2cccc(C#N)c2-n2cc(C#N)cn2)nc1 [Compound 90]
Corn plant response rating ([1]; 16 g ai/ha): 0 | Corn plant response rating ([1]; 31 g ai/ha): 0 | Corn plant response rating ([1]; 62 g ai/ha): 0 | Plant response rating, Corn [1, 14]: 0 | Soybean plant response rating ([2]; 31 g ai/ha): 15 | Soybean plant response rating ([2]; 62 g ai/ha): 30 | Plant response rating, Soybean [2, 14]: 35 | Velvetleaf plant response rating ([3]; 16 g ai/ha): 0 | Velvetleaf plant response rating ([3]; 31 g ai/ha): 20 | Velvetleaf plant response rating ([3]; 62 g ai/ha): 60 | Plant response rating, Velvetleaf [3, 14]: 85 | Lambsquarters plant response rating ([4]; 16 g ai/ha): 5 | Lambsquarters plant response rating ([4]; 31 g ai/ha): 75 | Lambsquarters plant response rating ([4]; 62 g ai/ha): 50 | Plant response rating, Lambsquarters [4, 14]: 100 | Waterhemp plant response rating ([5]; 16 g ai/ha): 0 | Waterhemp plant response rating ([5]; 31 g ai/ha): 0 | Waterhemp plant response rating ([5]; 62 g ai/ha): 20 | Plant response rating, Waterhemp [5, 14]: 100 | Surinam Grass plant response rating ([6]; 16 g ai/ha): 0 | Surinam Grass plant response rating ([6]; 31 g ai/ha): 0 | Surinam Grass plant response rating ([6]; 62 g ai/ha): 0 | Plant response rating, Surinam Grass [6, 14]: 0 | Foxtail, Giant plant response rating ([7]; 16 g ai/ha): 0 | Foxtail, Giant plant response rating ([7]; 31 g ai/ha): 0 | Foxtail, Giant plant response rating ([7]; 62 g ai/ha): 15 | Plant response rating, Foxtail, Giant [7, 14]: 50 | Goosegrass plant response rating ([8]; 16 g ai/ha): 0 | Goosegrass plant response rating ([8]; 31 g ai/ha): 0 | Goosegrass plant response rating ([8]; 62 g ai/ha): 5 | Plant response rating, Goosegrass [8, 14]: 50 | Ragweed plant response rating ([9]; 16 g ai/ha): 0 | Ragweed plant response rating ([9]; 31 g ai/ha): 50 | Ragweed plant response rating ([9]; 62 g ai/ha): 50 | Plant response rating, Ragweed [9, 14]: 75 | Arrowleaf Sida plant response rating ([10]; 16 g ai/ha, preemergence): 20 | Arrowleaf Sida plant response rating ([10]; 31 g ai/ha, preemergence): 50 | Plant response rating, Arrowleaf Sida ([10]; Preemergence, 62 g ai/ha, scale 0 to 100, 0 no effect, 100 complete control): 75 | Plant response rating, Arrowleaf Sida [10, 16]: 90 | Field Bindweed plant response rating ([11]; 16 g ai/ha): 35 | Field Bindweed plant response rating ([11]; 31 g ai/ha): 50 | Field Bindweed plant response rating ([11]; 62 g ai/ha): 70 | Plant response rating, Field Bindweed [11, 14]: 65 | Kochia plant response rating ([12]; 16 g ai/ha): 0 | Kochia plant response rating ([12]; 31 g ai/ha): 50 | Kochia plant response rating ([12]; 62 g ai/ha): 100 | Plant response rating, Kochia [12, 14]: 100

NC(=S)c1cccc(Oc2ncc(Cl)cn2)c1-n1cc(Cl)cn1 [Compound 292]
Plant response rating, Corn [1, 13]: 0 | Corn plant response rating ([1]; 16 g ai/ha): 0 | Corn plant response rating ([1]; 31 g ai/ha): 0 | Corn plant response rating ([1]; 62 g ai/ha): 0 | Plant response rating, Corn [1, 14]: 0 | Plant response rating, Soybean [2, 13]: 0 | Soybean plant response rating ([2]; 31 g ai/ha): 0 | Soybean plant response rating ([2]; 62 g ai/ha): 40 | Plant response rating, Soybean [2, 14]: 50 | Plant response rating, Velvetleaf [3, 13]: 0 | Velvetleaf plant response rating ([3]; 31 g ai/ha): 30 | Velvetleaf plant response rating ([3]; 62 g ai/ha): 35 | Plant response rating, Velvetleaf [3, 14]: 90 | Plant response rating, Lambsquarters [4, 13]: 0 | Lambsquarters plant response rating ([4]; 31 g ai/ha): 0 | Lambsquarters plant response rating ([4]; 62 g ai/ha): 25 | Plant response rating, Lambsquarters [4, 14]: 100 | Plant response rating, Waterhemp [5, 13]: 0 | Waterhemp plant response rating ([5]; 31 g ai/ha): 20 | Waterhemp plant response rating ([5]; 62 g ai/ha): 80 | Plant response rating, Waterhemp [5, 14]: 100 | Plant response rating, Surinam Grass [6, 13]: 0 | Surinam Grass plant response rating ([6]; 31 g ai/ha): 0 | Surinam Grass plant response rating ([6]; 62 g ai/ha): 10 | Plant response rating, Surinam Grass [6, 14]: 20 | Plant response rating, Foxtail, Giant [7, 13]: 0 | Foxtail, Giant plant response rating ([7]; 16 g ai/ha): 0 | Foxtail, Giant plant response rating ([7]; 31 g ai/ha): 5 | Foxtail, Giant plant response rating ([7]; 62 g ai/ha): 80 | Plant response rating, Foxtail, Giant [7, 14]: 95 | Plant response rating, Goosegrass [8, 13]: 0 | Goosegrass plant response rating ([8]; 31 g ai/ha): 20 | Goosegrass plant response rating ([8]; 62 g ai/ha): 50 | Plant response rating, Goosegrass [8, 14]: 70 | Plant response rating, Ragweed [9, 13]: 0 | Ragweed plant response rating ([9]; 31 g ai/ha): 0 | Ragweed plant response rating ([9]; 62 g ai/ha): 0 | Plant response rating, Ragweed [9, 14]: 35 | Plant response rating, Arrowleaf Sida [10, 15]: 0 | Arrowleaf Sida plant response rating ([10]; 16 g ai/ha, preemergence): 0 | Arrowleaf Sida plant response rating ([10]; 31 g ai/ha, preemergence): 5 | Arrowleaf Sida plant response rating ([10]; 62 g ai/ha, preemergence): 5 | Plant response rating, Arrowleaf Sida [10, 16]: 80 | Plant response rating, Field Bindweed [11, 13]: 0 | Field Bindweed plant response rating ([11]; 16 g ai/ha): 0 | Field Bindweed plant response rating ([11]; 31 g ai/ha): 5 | Field Bindweed plant response rating ([11]; 62 g ai/ha): 30 | Plant response rating, Field Bindweed [11, 14]: 65 | Plant response rating, Kochia [12, 13]: 0 | Kochia plant response rating ([12]; 31 g ai/ha): 0 | Kochia plant response rating ([12]; 62 g ai/ha): 70 | Plant response rating, Kochia [12, 14]: 98
